Read-outs that look alike come from different tables or passages of the source. Bounds are passed on as bounds.

One data set deals with human FGFR4 (Homo sapiens, UniProt P22455). In words: 33P isotope-labeled kinase activity test, wild-type FGFR4. The conditions noted are these: 33P-ATP 100 μM, 120 minutes.
The target in the next data set is human FGFR1 (Homo sapiens, UniProt P11362). In words: 33P isotope-labeled kinase activity test, wild-type FGFR1. The conditions noted are these: 33P-ATP 5 μM, 120 minutes.
Chain of human FGFR1 (P11362 22-822): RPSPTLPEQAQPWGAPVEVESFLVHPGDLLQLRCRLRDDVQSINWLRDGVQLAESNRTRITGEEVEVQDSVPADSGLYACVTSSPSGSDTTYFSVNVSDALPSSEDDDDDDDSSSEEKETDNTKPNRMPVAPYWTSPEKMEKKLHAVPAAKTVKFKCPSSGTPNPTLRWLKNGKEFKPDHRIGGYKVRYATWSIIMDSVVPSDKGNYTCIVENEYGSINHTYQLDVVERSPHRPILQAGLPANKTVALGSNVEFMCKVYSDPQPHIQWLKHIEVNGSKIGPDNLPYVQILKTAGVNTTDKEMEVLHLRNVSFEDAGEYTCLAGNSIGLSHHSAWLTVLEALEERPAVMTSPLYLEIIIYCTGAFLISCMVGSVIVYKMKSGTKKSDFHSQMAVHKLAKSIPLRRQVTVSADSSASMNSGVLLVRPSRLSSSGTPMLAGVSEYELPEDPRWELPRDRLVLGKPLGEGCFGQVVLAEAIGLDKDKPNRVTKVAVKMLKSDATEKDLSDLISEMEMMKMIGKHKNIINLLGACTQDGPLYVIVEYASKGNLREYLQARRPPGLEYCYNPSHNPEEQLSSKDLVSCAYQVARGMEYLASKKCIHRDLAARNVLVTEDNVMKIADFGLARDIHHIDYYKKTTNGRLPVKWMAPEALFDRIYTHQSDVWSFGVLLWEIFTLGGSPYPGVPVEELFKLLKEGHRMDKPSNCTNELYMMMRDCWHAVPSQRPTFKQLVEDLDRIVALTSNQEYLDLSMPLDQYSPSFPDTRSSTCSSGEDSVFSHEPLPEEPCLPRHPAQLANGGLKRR
The nature of data set [1]: Pharmacokinetics in mice in vivo. The settings on record: female, mouse, plasma, Balb/c mice; for AUC: read-out: Area under the curve, AUC; for clearance: read-out: Clearance rate; for half-life: read-out: Half-life T1/2 (converted); for bioavailability: read-out: Bioavailability F. How it is done: Assay 3: Evaluation of Compounds' Pharmacokinetics
Experiment purpose: To test the pharmacokinetics of the compound in mice in vivo.
The pharmacokinetics profile in rodents after the intravenous injection and the oral administration of the compound was tested using a standard protocol. In experiments, the candidate compound was prepared as a clear solution, which was administered to the mice as a single intravenous injection and as an oral administration. The medium for the intravenous injection was 10% DMSO/10% solutol/80% water, and the medium for the oral administration was 0.5% sodium carboxymethylcellulose+0.2% Tween. The whole blood samples within 24 hours were collected. All blood samples were added to the well-labeled plastic centrifuge tubes, to which 0.5M K2-EDTA anticoagulant was added in advance. After the collection of blood samples, the blood samples were centrifuged at 4° C. at 3000 g for 10 minutes. The supernatant plasma was collected, promptly placed in the dry ice, and kept at a temperature of −20° C. or lower. The LC-MS/MS analysis method was used to quantitatively analyze the blood concentration, and the pharmacokinetics parameters, such as peak concentration, peak time, clearance rate, half-life, area under the curve and bioavailability were calculated.

Chain of human FGFR4 (P22455 22-802): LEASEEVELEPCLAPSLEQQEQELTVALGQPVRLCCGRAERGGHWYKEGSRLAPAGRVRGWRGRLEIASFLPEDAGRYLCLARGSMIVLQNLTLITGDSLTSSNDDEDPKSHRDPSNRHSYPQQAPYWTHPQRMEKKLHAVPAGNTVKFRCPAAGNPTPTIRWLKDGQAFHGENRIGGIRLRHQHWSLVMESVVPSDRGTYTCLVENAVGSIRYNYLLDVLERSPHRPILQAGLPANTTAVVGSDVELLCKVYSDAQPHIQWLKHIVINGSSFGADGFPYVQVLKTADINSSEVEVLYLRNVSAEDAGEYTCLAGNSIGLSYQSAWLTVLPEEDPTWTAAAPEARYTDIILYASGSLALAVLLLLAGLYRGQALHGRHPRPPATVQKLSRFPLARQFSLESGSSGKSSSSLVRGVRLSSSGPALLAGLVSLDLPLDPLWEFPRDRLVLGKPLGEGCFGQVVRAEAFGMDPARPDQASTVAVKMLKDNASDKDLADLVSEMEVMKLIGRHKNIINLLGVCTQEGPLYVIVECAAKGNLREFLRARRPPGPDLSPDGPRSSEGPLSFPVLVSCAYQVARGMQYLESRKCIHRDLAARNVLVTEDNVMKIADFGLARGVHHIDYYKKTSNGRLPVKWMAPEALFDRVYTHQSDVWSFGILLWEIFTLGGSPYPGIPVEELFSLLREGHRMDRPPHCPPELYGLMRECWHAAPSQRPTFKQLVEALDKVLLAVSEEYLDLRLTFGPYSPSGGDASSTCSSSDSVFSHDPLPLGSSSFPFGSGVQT
Text for human FGFR1: (§1) Assay 1: Evaluation of Wild-Type Kinase Inhibitory Activity In Vitro
Text for human FGFR4: as §1

For the compound `CCC(=O)N1CC[C@H](c2cc(-c3nc4cc(OC)cc(OC)c4s3)c3c(N)ncnn23)C1` [Example 28], the IC50 against human FGFR4 was over 10000 nM; against human FGFR1 (IC50 FGFR1, wild-type kinase) it was over 10000 nM.

For `C=CC(=O)N1CCC(c2cc(-c3sc4c(OC)cc(C)cc4c3C)c3c(N)ncnn23)C1` (single isomer, unassigned) [Example 7], the half-maximal inhibitory concentration (IC50) turned out to be 8.5 nM on human FGFR4 and 0.7 nM on human FGFR1 (IC50 FGFR1, wild-type kinase).

For the compound `CC#CC(=O)N1CCC(c2c(COC)c(-c3cc4cc(C)cc(OC)c4s3)c3c(N)ncnn23)C1` (centres unmarked) [Example 20], the IC50 on human FGFR4 was 0.8 nM; at human FGFR1 (IC50 FGFR1, wild-type kinase), 0.2 nM.

For the compound `COc1cc(C)cc2cc(-c3cc(C4CCN(C(=O)CC#N)C4)n4ncnc(N)c34)sc12` (single isomer, unassigned) [Example 16], the IC50 against human FGFR4 turned out to be 5.3 nM; at human FGFR1 (IC50 FGFR1, wild-type kinase), 0.8 nM.

With `C=CC(=O)N1CCC(c2c(COC)c(-c3cc4cc(C)cc(OC)c4s3)c3c(N)ncnn23)C1` (single isomer, unassigned) [Example 18], the IC50 was 0.2 nM at human FGFR4 and 0.1 nM against human FGFR1 (IC50 FGFR1, wild-type kinase).

Turning to `COc1cc(OC)c2sc(-c3cc([C@@H]4CCN(C(=O)/C=C/CN(C)C)C4)n4ncnc(N)c34)cc2c1F` [Example 29], the half-inhibitory concentration (IC50) is 9.2 nM against human FGFR4 and 0.5 nM against human FGFR1 (IC50 FGFR1, wild-type kinase).

`COc1cc(C)cc2cc(-c3cc(C4CCN(C(=O)CC#N)C4)n4ncnc(N)c34)sc12` (single isomer, unassigned) [Example 15] had an IC50 at human FGFR4 of 6.2 nM. For the same compound, in data set [1] (intravenous injection (3 npk)), the AUC came out at 2.03 µM·h, the clearance came to 52 mL/min/kg and the half-life is 48 min. For the same compound, in data set [1] (oral administration (10 npk)), the AUC amounted to 4.8 µM·h and the bioavailability stood at 70%. At human FGFR1 (IC50 FGFR1, wild-type kinase), this compound registered a half-maximal inhibitory concentration (IC50) of 1.5 nM.

As to `CCC(=O)N1CC[C@H](c2cc(-c3cc4c(F)c(OC)cc(OC)c4s3)c3c(N)ncnn23)C1` [Example 21], the 50% inhibitory concentration (IC50) at human FGFR4 turned out to be 138 nM; against human FGFR1 (IC50 FGFR1, wild-type kinase), 6.6 nM.

With `COc1cc(C)cc2cc(-c3cc(C4CCN(C(=O)/C=C/CN(C)C)C4)n4ncnc(N)c34)sc12` (single isomer, unassigned) [Example 13], the IC50 against human FGFR4 came out at 8.7 nM; against human FGFR1 (IC50 FGFR1, wild-type kinase), 0.6 nM.

Regarding `COc1cc(C)cc2cc(-c3cc([C@@H]4CCN(C(=O)/C=C/CN5CCOCC5)C4)n4ncnc(N)c34)sc12` [Example 31], the IC50 was found to be 9.6 nM at human FGFR4 and 1.1 nM at human FGFR1 (IC50 FGFR1, wild-type kinase).

Take `C=CC(=O)N1CCC(c2c(COC)c(-c3cc4cc(C)cc(OC)c4s3)c3c(N)ncnn23)C1` (single isomer, unassigned) [Example 19]: the IC50 was 0.1 nM on human FGFR4 and 0.1 nM at human FGFR1 (read-out: IC50 FGFR1, wild-type kinase).

With `CCC(=O)N1CC[C@@H](c2cc(-c3cc4cc(C)cc(OC)c4s3)c3c(N)ncnn23)C1` [Example 26], the IC50 at human FGFR4 came out at 4.2 nM; at human FGFR1 (IC50 FGFR1, wild-type kinase), 1.2 nM.

Take `CCC(=O)N1CC[C@@H](c2cc(-c3cc4c(F)c(OC)cc(OC)c4s3)c3c(N)ncnn23)C1` [Example 24]: the IC50 against human FGFR4 was found to be 40 nM; against human FGFR1 (IC50 FGFR1, wild-type kinase) it was 2.2 nM.

In the case of `C=CC(=O)N1CC[C@@H](c2cc(-c3cc4c(F)c(OC)cc(OC)c4s3)c3c(N)ncnn23)C1` [Example 22], the IC50 against human FGFR4 came to 9.9 nM; on human FGFR1 (IC50 FGFR1, wild-type kinase), 1.5 nM.

For the compound `CC#CC(=O)N1CC[C@H](c2cc(-c3cc4cc(C)cc(OC)c4s3)c3c(N)ncnn23)C1` [Example 11], the IC50 against human FGFR4 stood at 0.1 nM; against human FGFR1 (IC50 FGFR1, wild-type kinase), 0.1 nM.

Consider `C=CC(=O)N1CC[C@@H](c2cc(-c3cc4cc(Cl)cc(OC)c4s3)c3c(N)ncnn23)C1` [Example 4], for which the IC50 against human FGFR4 worked out at 4.1 nM; on human FGFR1 (IC50 FGFR1, wild-type kinase) it was 0.6 nM.

For `C=CC(=O)N1CC[C@@H](c2cc(-c3nc4cc(OC)cc(OC)c4s3)c3c(N)ncnn23)C1` [Example 34], the IC50 on human FGFR4 amounted to 462 nM; against human FGFR1 (IC50 FGFR1, wild-type kinase), 126 nM.

`C=CC(=O)N1CC[C@H](c2cc(-c3cc4cccc(OC)c4o3)c3c(N)ncnn23)C1` [Example 25]: the IC50 at human FGFR4 stood at 477 nM; against human FGFR1 (IC50 FGFR1, wild-type kinase) it was 250 nM.

For `CCC(=O)N1CC[C@H](c2cc(-c3cc4cc(C)cc(OC)c4s3)c3c(N)ncnn23)C1` [Example 27], the half-inhibitory concentration (IC50) came out at 67 nM at human FGFR4 and 4.7 nM against human FGFR1 (IC50 FGFR1, wild-type kinase).

With `C=CC(=O)N1CC[C@H](c2cc(-c3nc4cc(OC)cc(OC)c4s3)c3c(N)ncnn23)C1` [Example 17], the IC50 against human FGFR4 is over 10000 nM; at human FGFR1 (IC50 FGFR1, wild-type kinase), over 10000 nM.

Turning to `C=CC(=O)N1CC[C@H](c2cc(-c3cc4cccc(OC)c4s3)c3c(N)ncnn23)C1` [Example 33], the 50% inhibitory concentration (IC50) against human FGFR4 worked out at 0.9 nM; at human FGFR1 (IC50 FGFR1, wild-type kinase), 0.5 nM.

Take `COc1cc(C)cc2cc(-c3cc([C@H]4CCN(C(=O)/C=C/CN5CCOCC5)C4)n4ncnc(N)c34)sc12` [Example 32]: the half-maximal inhibitory concentration (IC50) came out at 80 nM on human FGFR4 and 4.7 nM against human FGFR1 (IC50 FGFR1, wild-type kinase).

On to `COc1cc(OC)c2sc(-c3cc([C@H]4CCN(C(=O)/C=C/CN(C)C)C4)n4ncnc(N)c34)cc2c1F` [Example 30], for which the IC50 against human FGFR4 worked out at 20 nM; on human FGFR1 (IC50 FGFR1, wild-type kinase) it was 1.6 nM.

Consider `COc1cc(C)cc2cc(-c3cc(C4CCN(C(=O)/C=C/CN(C)C)C4)n4ncnc(N)c34)sc12` (single isomer, unassigned) [Example 12], for which the IC50 at human FGFR4 was 2.6 nM; against human FGFR1 (IC50 FGFR1, wild-type kinase), 0.2 nM.

Consider `C=CC(=O)N1CCC(c2cc(-c3cc4cc(C)cc(OC)c4s3)c3c(N)ncnn23)C1` (centres unmarked) [Example 1], for which the IC50 is 0.9 nM on human FGFR4 and 0.4 nM at human FGFR1 (IC50 FGFR1, wild-type kinase).

Consider `C=CC(=O)N1CCC(c2cc(-c3sc4c(OC)cc(C)cc4c3C)c3c(N)ncnn23)C1` (single isomer, unassigned) [Example 8], for which the IC50 against human FGFR4 came out at 0.7 nM; on human FGFR1 (IC50 FGFR1, wild-type kinase), 0.1 nM.

As for `C=CC(=O)N1CC[C@H](n2nc(C#Cc3cc(OC)cc(OC)c3)c3c(N)ncnc32)C1` [Reference Example 1, reference compound], in data set [1] (intravenous injection (3 npk)), the AUC came to 5.29 µM·h, the clearance was 22 mL/min/kg and the half-life is 42 min. In addition, in data set [1] (oral administration (10 npk)), the AUC was 11.9 µM·h and the bioavailability turned out to be 69%.

Regarding `C=CC(=O)N1CC[C@H](c2cc(-c3cc4c(F)c(OC)cc(OC)c4s3)c3c(N)ncnn23)C1` [Example 23], the half-inhibitory concentration (IC50) on human FGFR4 was found to be 0.2 nM; at human FGFR1 (IC50 FGFR1, wild-type kinase), 0.2 nM.

In the case of `C=CC(=O)N1CC[C@H](c2cc(-c3cc4cc(Cl)cc(OC)c4s3)c3c(N)ncnn23)C1` [Example 5], the 50% inhibitory concentration (IC50) amounted to 0.7 nM at human FGFR4 and 0.3 nM on human FGFR1 (IC50 FGFR1, wild-type kinase).

Take `C=CC(=O)N1CCC(O)(c2cc(-c3cc4cc(C)cc(OC)c4s3)c3c(N)ncnn23)C1` (centres unmarked) [Example 14]: the IC50 at human FGFR4 was found to be 6.6 nM; against human FGFR1 (IC50 FGFR1, wild-type kinase), 0.8 nM.

As to `C=CC(=O)N1CC[C@H](c2cc(-c3sc4c(OC)cc(Cl)cc4c3C)c3c(N)ncnn23)C1` [Example 9], the IC50 was determined as 3.3 nM on human FGFR4 and 0.7 nM on human FGFR1 (IC50 FGFR1, wild-type kinase).

With `CC#CC(=O)N1CC[C@@H](c2cc(-c3cc4cc(C)cc(OC)c4s3)c3c(N)ncnn23)C1` [Example 10], the IC50 came to 1.5 nM at human FGFR4 and 0.2 nM against human FGFR1 (IC50 FGFR1, wild-type kinase).

As for `C=CC(=O)N1CCCC(c2cc(-c3cc4cc(C)cc(OC)c4s3)c3c(N)ncnn23)C1` (centres unmarked) [Example 6], the IC50 on human FGFR4 stood at 5.4 nM; at human FGFR1 (IC50 FGFR1, wild-type kinase) it was 1.7 nM.

These data come from US11236094B2, “Substituted pyrrolo[2,1-f][1,2,4]triazines as FGFR inhibitors” (CSPC ZHONGQI PHARMACEUTICAL TECHNOLOGY (SHIJIAZHUANG) CO., …, priority 2017, dated 2022).
